Laboratory results as given in patent US20240124483A1, “Methods for the Treatment of Fibrotic Disease” (SHY Therapeutics, LLC, priority 2021, published 2024).
Where two headings read alike, the source gives them in different places.

How the values were obtained:
[1] = system: Smad2/3 phosphorylation; assay: Phospho-Smad2/3 Inhibition Assay in Panc-1 (western blot); type: cell-based; settings: Homo sapiens; 10 μM, 3 hours; PANC-1 stimulated with 10 ng/ml TGF-b1 for 1 hour; read-out: % inh of Smad2/3 phosphorylation in PANC-1
Method in brief: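 Serum-starved cells (0.5% FBS overnight) pretreated 3 h at 37 °C with compound at 10 μM or serial dilutions for IC50, in 0.3% DMSO. TGF-b1 10 ng/ml stimulation: 1 h for Panc-1 (human), 20 min for C2C12 (mouse). Phospho-Smad2 (Ser465/467) and phospho-Smad3 (Ser423/425) measured by western blot of lysates.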

[2] = system: MiaPaca2; assay: MiaPaca2 proliferation; type: cell-based; settings: Homo sapiens, MIA PaCa-2; for inhibition at 10 µM: read-out: % inh of proliferation in MiaPaca2
[3] = target: KRas Q61H mutant (Homo sapiens (Human), UniProt P01116, Q61H); assay: Ras GTP Binding Domain Inhibition Assay, KRas Q61H mutant; settings: 20 μM
Method in brief: (§1)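 Steps: coat His-tagged protein (10-30 μg/mL) on nickel wells overnight at 4° C; add test compound, 20 μM final or serial dilution, 1% DMSO, 3 h RT; optional Sos final hour; add 100 nM Cy3-GTP or Cy5-GTP, 45 min; wash and read fluorescence.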

[4] = target: Rac-1 (Homo sapiens (Human), UniProt P63000); assay: Ras GTP Binding Domain Inhibition Assay, Rac-1; settings: without SOS, read-out: Rac-1: % inh.
Method in brief: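 His-tagged GTPase immobilized on nickel-coated plates (10-30 μg/mL, overnight, 4° C), then exposed to compound (20 μM or serial dilution for IC50, 1% DMSO) for 3 h at room temperature, with or without His-tagged Sos (residues 556-1049) in the final hour. Bound Cy3-GTP or Cy5-GTP (100 nM, 45 min) was read by fluorescence after washing.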

[5] = target: KRas G12C mutant (Homo sapiens (Human), UniProt P01116, G12C); assay: Ras GTP Binding Domain Inhibition Assay, KRas G12C mutant
Method in brief: as §1

[6] = + SOS, read-out: KRas Q61H mutant + SOS: % inh.
[7] = without SOS, read-out: KRas Q61H mutant: % inh.
[8] = + SOS, read-out: KRas G12C mutant + SOS: % inh.
[9] = without SOS, read-out: KRas G12C mutant: % inh.

Chain of KRas Q61H mutant (P01116 other isoform, or with tags, fused parts or gaps Q61H): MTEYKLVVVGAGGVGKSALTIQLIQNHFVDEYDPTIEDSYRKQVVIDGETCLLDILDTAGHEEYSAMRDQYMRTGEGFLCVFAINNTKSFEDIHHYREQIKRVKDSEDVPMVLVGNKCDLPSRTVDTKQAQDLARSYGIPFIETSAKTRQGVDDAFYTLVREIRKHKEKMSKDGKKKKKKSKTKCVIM
Chain of KRas G12C mutant (P01116 other isoform, or with tags, fused parts or gaps G12C): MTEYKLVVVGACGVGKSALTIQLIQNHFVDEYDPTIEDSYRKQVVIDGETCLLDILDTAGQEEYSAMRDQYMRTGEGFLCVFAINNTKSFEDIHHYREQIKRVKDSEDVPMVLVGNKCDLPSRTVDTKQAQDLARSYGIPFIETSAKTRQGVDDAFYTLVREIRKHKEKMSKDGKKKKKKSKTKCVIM

Compound	inhibition at 10 µM [1] [%]	IC50 [2] [µM]	inhibition at 10 µM [2] [%]	inhibition at 20 µM [3, 6] [%]	inhibition at 20 µM [3, 7] [%]	inhibition at 20 µM [4] [%]	inhibition at 20 µM [5, 8] [%]	inhibition at 20 µM [5, 9] [%]
COCCOc1nc(-c2nccn2C)nc2sc(-c3ccn(C(C)C)n3)c(C)c12 [Compound 30, 6-(1-Isopropyl-1H-pyrazol-3-yl)-4-(2-methoxyethoxy)-5-methyl-2-(1-methyl-1H-imidazol-2-yl)thieno[2,3-d]pyrimidine]	0	> 10	1 to 25	1 to 25	0	0	0	1 to 25
COCCCn1c(-c2nccn2C)nc2sc(-c3ccn(C(C)C)n3)c(C)c2c1=O [Compound 31, 6-(1-Isopropyl-1H-pyrazol-3-yl)-3-(3-methoxypropyl)-5-methyl-2-(1-methyl-1H-imidazol-2-yl)thieno[2,3-d]pyrimidin-4(3H)-one]	0	> 10	0	0	0	0	0	0
COCCCOc1nc(-c2nccn2C)nc2sc(-c3ccn(C(C)C)n3)c(C)c12 [Compound 32, 6-(1-Isopropyl-1H-pyrazol-3-yl)-4-(3-methoxypropoxy)-5-methyl-2-(1-methyl-1H-imidazol-2-yl)thieno[2,3-d]pyrimidine]	0	5 to 10	76 to 100	46 to 75	46 to 75	0	46 to 75	46 to 75
COCCCCn1c(-c2nccn2C)nc2sc(-c3ccn(C(C)C)n3)c(C)c2c1=O [Compound 33, 6-(1-Isopropyl-1H-pyrazol-3-yl)-3-(4-methoxybutyl)-5-methyl-2-(1-methyl-1H-imidazol-2-yl)thieno[2,3-d]pyrimidin-4(3H)-one]	0	> 10	0	1 to 25	0	0	1 to 25	0
COCCCCOc1nc(-c2nccn2C)nc2sc(-c3ccn(C(C)C)n3)c(C)c12 [Compound 34, 6-(1-Isopropyl-1H-pyrazol-3-yl)-4-(4-methoxybutoxy)-5-methyl-2-(1-methyl-1H-imidazol-2-yl)thieno[2,3-d]pyrimidine]	0	> 10	26 to 45	1 to 25	0	0	1 to 25	0
COc1cc(Cn2c(-c3nccn3C)nc3sc(-c4ccn(C(C)C)n4)c(C)c3c2=O)ncn1 [Compound 35, 6-(1-Isopropyl-1H-pyrazol-3-yl)-3-((6-methoxypyrimidin-4-yl)methyl)-5-methyl-2-(1-methyl-1H-imidazol-2-yl)thieno[2,3-d]pyrimidin-4(3H)-one]	0	> 10	0	1 to 25	1 to 25	0	1 to 25	0
COCCCn1c(-c2nccn2C)nc2sc(-c3ccn(C(C)C)n3)c(-c3ccccc3)c2c1=O [Compound 36, 6-(1-Isopropyl-1H-pyrazol-3-yl)-3-(3-methoxypropyl)-2-(1-methyl-1H-imidazol-2-yl)-5-phenylthieno[2,3-d]pyrimidin-4(3H)-one]	0	5 to 10	76 to 100	0	0	0	1 to 25	0
COCCCOc1nc(-c2nccn2C)nc2sc(-c3ccn(C(C)C)n3)c(-c3ccccc3)c12 [Compound 37, 6-(1-Isopropyl-1H-pyrazol-3-yl)-4-(3-methoxypropoxy)-2-(1-methyl-1H-imidazol-2-yl)-5-phenylthieno[2,3-d]pyrimidine]	0	> 10	1 to 25	0	0	0	0	0
COc1cccc(-c2sc3nc(-c4nccn4C)nc(N[C@H]4C[C@H](OC)C4)c3c2-c2ccccc2)c1F [Compound 40, 6-(2-Fluoro-3-methoxyphenyl)-N-((1r,3r)-3-methoxycyclobutyl)-2-(1-methyl-1H-imidazol-2-yl)-5-phenylthieno[2,3-d]pyrimidin-4-amine]	76 to 100	1 to 4.99	76 to 100	76 to 100	76 to 100	26 to 45	76 to 100	46 to 75
COc1cccc(-c2sc3nc(-c4nccn4C)nc(N[C@H]4C[C@H](OC)C4)c3c2C)c1F [Compound 42, 6-(2-Fluoro-3-methoxyphenyl)-N-((1r,3r)-3-methoxycyclobutyl)-5-methyl-2-(1-methyl-1H-imidazol-2-yl)thieno[2,3-d]pyrimidin-4-amine]	1 to 25	5 to 10	76 to 100	76 to 100	46 to 75	0	76 to 100	46 to 75
COc1nccc(-c2sc3nc(-c4nccn4C)nc(N[C@H]4C[C@H](OC)C4)c3c2-c2ccccc2)c1F [Compound 45, 6-(3-Fluoro-2-methoxypyridin-4-yl)-N-((1r,3r)-3-methoxycyclobutyl)-2-(1-methyl-1H-imidazol-2-yl)-5-phenylthieno[2,3-d]pyrimidin-4-amine]	76 to 100	1 to 4.99	76 to 100	76 to 100	46 to 75	46 to 75	76 to 100	26 to 45
COc1cc(-c2sc3nc(-c4nccn4C)nc(N[C@H]4C[C@H](OC)C4)c3c2-c2ccccc2)ccn1 [Compound 46, N-((1r,3r)-3-Methoxycyclobutyl)-6-(2-methoxypyridin-4-yl)-2-(1-methyl-1H-imidazol-2-yl)-5-phenylthieno[2,3-d]pyrimidin-4-amine]	76 to 100	1 to 4.99	76 to 100	76 to 100	76 to 100	46 to 75	76 to 100	26 to 45
